Test system: five species, planktonic mix of representative oral species (Actinomyces viscosus, Lactobacillus casei, Streptococcus oralis, Fusobacterium nucleatum, and …)
Test: Resazurin bacterial inhibition assay
Format: cell-based
Details: 1% elemental Zn final concentration; 1 h incubation; resazurin fluorescence
From the text: The antibacterial activity of the Zn2CitCl (dizinc citrate chloride) complex was compared against zinc citrate (ZnCit) using the resazurin bacterial inhibition assay. In order to test this hypothesis, we used an assay we have developed based on the metabolic indicator dye resazurin. […] A five species, planktonic mix of representative oral species is used in this assay (Actinomyces viscosus, Lactobacillus casei, Streptococcus oralis, Fusobacterium nucleatum, and Veillonella parvula). Bacteria are incubated with the test solution for 1 h prior to staining with 50 μg/ml of resazurin solution. When viable, metabolically active bacteria are incubated with resazurin, the blue, non-fluorescent dye is reduced by the bacteria to the pink fluorescent dye resrufin. Fluorescence of test samples are read at 560 nm excitation/590 nm emission and compared to the fluorescence of standard mixes of live and dead bacteria to determine the percentage of the initial population that remained viable following treatment. Samples were tested at a final concentration of 1% elemental Zn for each compound indicated.

| Substance | % viability |
| --- | --- |
| sodium zinc citrate | 5.9% |
| basic sodium zinc citrate | 7.0% |
| basic sodium dizinc citrate chloride | 3.3% |

Source: patent publication US10357438B2, “Metal salt compositions” (Colgate-Palmolive Company, priority 2014, dated 2019)
